Laboratory results published in patent US7223753B2, “Diazabicyclic biaryl derivatives” (Neurosearch A/S, priority 2002, dated 2007).
Where a name gives a salt, the structure may show the parent alone.

The compounds below were run against T1, α7-subtype of nicotinic receptors (Rattus norvegicus, UniProt Q05941) (assay: In vitro inhibition of 3H-α-bungarotoxine binding in rat brain). Conditions: rat cerebral cortex homogenate; 3H-α-bungarotoxine 2 nM; 2 hours at 37° C.
T1 construct: Cerebral cortices from male Wistar rats (150–250 g) are homogenised; from tissue; host or cells: rat cerebral cortex membrane homogenate
T1 sequence (Q05941 23-502): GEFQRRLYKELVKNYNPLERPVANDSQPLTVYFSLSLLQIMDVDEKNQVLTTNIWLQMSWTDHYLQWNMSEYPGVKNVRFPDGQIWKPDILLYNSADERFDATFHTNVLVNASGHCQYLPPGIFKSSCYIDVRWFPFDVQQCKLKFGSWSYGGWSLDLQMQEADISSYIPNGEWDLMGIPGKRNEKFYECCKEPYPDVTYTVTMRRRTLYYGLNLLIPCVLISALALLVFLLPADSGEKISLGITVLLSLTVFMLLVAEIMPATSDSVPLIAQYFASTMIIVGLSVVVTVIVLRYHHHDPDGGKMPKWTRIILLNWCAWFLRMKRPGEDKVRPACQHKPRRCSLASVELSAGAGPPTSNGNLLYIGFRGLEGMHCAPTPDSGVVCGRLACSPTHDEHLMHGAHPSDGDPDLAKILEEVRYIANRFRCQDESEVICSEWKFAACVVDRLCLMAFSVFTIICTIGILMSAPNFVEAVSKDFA
`c1cc(-c2ccc(N3CCN4CCC3CC4)nn2)co1` [Compound 7, 4-(6-Furan-3-yl-pyridazin-3-yl)-1,4-diazabicyclo[3.2.2]nonane fumaric acid salt] was tested, and the IC50 was 22 nM. Work on `c1cc(-c2ccc(N3CCN4CCC3CC4)nn2)cs1` [Compound 1, 4-[6-Thien-3-yl-pyridazin-3-yl]-1,4-diazabicyclo[3.2.2]nonane fumaric acid salt] yielded an IC50 of 38 nM. `c1csc(-c2ccc(N3CCN4CCC3CC4)nn2)c1` [Compound 4, 4-(6-Thien-2-yl-pyridazin-3-yl)-1,4-diazabicyclo[3.2.2]nonane fumaric acid salt] showed an IC50 of 44 nM. Work on `c1c[se]c(-c2ccc(N3CCN4CCC3CC4)nn2)c1` [Compound 5, 4-(6-Selenophen-2-yl-pyridazin-3-yl)-1,4-diazabicyclo[3.2.2]nonane fumaric acid salt] yielded an IC50 of 6.5 nM. In the case of `c1ccc(-c2ccc(N3CCN4CCC3CC4)cc2)cc1` [Compound 34, 4-Biphenyl-4-yl-1,4-diazabicyclo[3.2.2]nonane fumaric acid salt], the IC50 is reported as 24 nM.
